Data published in patent US7355051B2, “Piperdine-amino-benzimidazole derivatives as inhibitors of respiratory syncytial virus replication” (Tibotec Pharmaceuticals, priority 2003, dated 2008).
Where two headings read alike, the source gives them in different places.

How the values were obtained:
[1] = tested on: Respiratory Syncytial Virus; experiment: microbe, parasite or virus in culture; format: cell-based; conditions: for EC50: human respiratory syncytial virus, 168 h
Source text: The percent protection against cytopathology caused by viruses (antiviral activity or EC50) achieved by tested compounds and their cytotoxicity (CC50) are both calculated from dose-response curves. The selectivity of the antiviral effect is represented by the selectivity index (SI), calculated by dividing the CC50 (cytotoxic dose for 50% of the cells) by the EC50 (antiviral activity for 50% of the cells).
Automated tetrazolium-based […] assays were used for determination of EC50 and CC50 of test compounds. Flat-bottom, 96-well plastic microtiter trays were filled with 180 μl of Eagle's Basal Medium, supplemented with 5% FCS (0% for FLU) and 20 mM Hepes buffer. Subsequently, stock solutions (7.8× final test concentration) of compounds were added in 45 μl volumes to a series of triplicate wells so as to allow simultaneous evaluation of their effects on virus- and mock-infected cells. Five five-fold dilutions were made directly in the microtiter trays using a robot system. Untreated virus controls, and HeLa cell controls were included in each test. Approximately 100 TCID50 of Respiratory Syncytial Virus was added to two of the three rows in a volume of 50 μl. The same volume of medium was added to the third row to measure the cytotoxicity of the compounds at the same concentrations as those used to measure the antiviral activity. After two hours of incubation, a suspension (4×10^5 cells/ml) of HeLa cells was added to all wells in a volume of 50 μl. The cultures were incubated at 37° C. in a 5% CO2 atmosphere. Seven days after infection the cytotoxicity and the antiviral activity was examined spectrophotometrically. To each well of the microtiter tray, 25 μl of a solution of MTT (3-(4,5-dimethylthiazol-2-yl)-2,5-diphenyltetrazolium bromide) was added. The trays were further incubated at 37° C. for 2 hours, after which the medium was removed from each cup. Solubilization of the formazan crystals was achieved by adding 100 μl 2-propanol. Complete dissolution of the formazan crystals were obtained after the trays have been placed on a plate shaker for 10 min. Finally, the absorbances were read in an eight-channel computer-controlled photometer (Multiskan MCC, Flow Laboratories) at two wavelengths (540 and 690 nm). The absorbance measured at 690 nm was automatically subtracted from the absorbance at 540 nm, so as to eliminate the effects of non-specific absorption.

[2] = Table 3, pEC50 (−log of EC50 in molar units), RSV-infected HeLa cells, MTT read-out seven days after infection, read-out: Activity (converted)
[3] = Table 1, pEC50 (−log of EC50 in molar units), RSV-infected HeLa cells, MTT read-out seven days after infection, read-out: Activity (converted)

Compound | melting point [°C] | EC50 [1, 2] [nM] | further results
COc1ccc(OCC(O)CN2CCC(Nc3nc4c(C)cccc4n3Cc3nc(C)ccc3O)CC2)cc1 (stereo not drawn) [Compound 41, 2-(2-{1-[2-hydroxy-3-(4-methoxy-phenoxy)-propyl]-piperidin-4-ylamino}-4-methyl-benzoimidazol-1-ylmethyl)-6-methyl-pyridin-3-ol] | 227 | 316 | –
Cc1cc(C)c2nc(NC3CCN(CCC(N)=O)CC3)n(Cc3nc(C)ccc3O)c2c1 | 212 | – | –
Cc1ccc(O)c(Cn2c(NC3CCN(CCCS(N)(=O)=O)CC3)nc3c(C)cccc32)n1 [Compound 19, 3-{4-[1-(3-hydroxy-6-methyl-pyridin-2-ylmethyl)-4-methyl-1H-benzoimidazol-2-ylamino]-piperidin-1-yl}-propane-1-sulfonic acid amide] | 250 | 12.6 | –
CCOC(=O)CCN1CCC(Nc2nc3c(C)cccc3n2Cc2nc(C)ccc2O)CC1 [Compound 32, 3-{4-[1-(3-Hydroxy-6-methyl-pyridin-2-ylmethyl)-4-methyl-1H-benzoimidazol-2-ylamino]-piperidin-1-yl}-propionic acid ethyl ester] | 226 | 158 | –
Cc1cc(C)c2nc(NC3CCN(CCCO)CC3)n(Cc3nc(C)ccc3O)c2c1 [Compound 4, 2-{2-[1-(3-hydroxy-propyl)-piperidin-4-ylamino]-4,6-dimethyl-benzoimidazol-1-ylmethyl}-6-methyl-pyridin-3-ol] | 209 | – | EC50 [1, 3]: 7.94 nM
Cc1cc(C)c2nc(NC3CCN(CCCS(N)(=O)=O)CC3)n(Cc3nc(C)ccc3O)c2c1 [Compound 1, 3-{4-[1-(3-hydroxy-6-methyl-pyridin-2-ylmethyl)-4,6-dimethyl-1H-benzoimidazol-2-ylamino]-piperidin-1-yl}-propane-1-sulfonic acid amide] | 180 | – | EC50 [1, 3]: 2 nM
Cc1ccc(O)c(Cn2c(NC3CCN(CC(O)C(C)C)CC3)nc3c(C)cccc32)n1 (stereo not drawn) [Compound 35, 2-{2-[1-(2-hydroxy-3-methyl-butyl)-piperidin-4-ylamino]-4-methyl-benzoimidazol-1-ylmethyl}-6-methyl-pyridin-3-ol] | 230 | 158 | –
Cc1ccc(O)c(Cn2c(NC3CCN(CCN4CCCC4)CC3)nc3c(C)cccc32)n1 [Compound 18, 6-Methyl-2-{4-methyl-2-[1-(2-pyrrolidin-1-yl-ethyl)-piperidin-4-ylamino]-benzoimidazol-1-ylmethyl}-pyridin-3-ol] | 225 | 10 | –
Cc1ccc(O)c(Cn2c(NC3CCN(CCC(=O)O)CC3)nc3c(C)cccc32)n1.Cl [Compound 33, 3-{4-[1-(3-hydroxy-6-methyl-pyridin-2-ylmethyl)-4-methyl-1H-benzoimidazol-2-ylamino]-piperidin-1-yl}-propionic acid hydrochloride salt] | 245 | 158 | –
Cc1ccc(O)c(Cn2c(NC3CCN(CCOC(N)=O)CC3)nc3c(C)cccc32)n1 [Compound 37, Carbamic acid 2-{4-[1-(3-hydroxy-6-methyl-pyridin-2-ylmethyl)-4-methyl-1H-benzoimidazol-2-ylamino]-piperidin-1-yl}-ethyl ester] | 222 | 158 | –
CCOC(=O)CCN1CCC(Nc2nc3c(C)cc(C)cc3n2Cc2nc(C)ccc2O)CC1 [Compound 10, 3-{4-[1-(3-Hydroxy-6-methyl-pyridin-2-ylmethyl)-4,6-dimethyl-1H-benzoimidazol-2-ylamino]-piperidin-1-yl}-propionic acid ethyl ester] | 172 | – | EC50 [1, 3]: 79.4 nM
Cc1ccc(O)c(Cn2c(NC3CCN(CCC(N)=O)CC3)nc3c(C)cccc32)n1 [Compound 27, 3-{4-[1-(3-Hydroxy-6-methyl-pyridin-2-ylmethyl)-4-methyl-1H-benzoimidazol-2-ylamino]-piperidin-1-yl}-propionamide] | 258 | 50.1 | –
Cc1cc(C)c2c(c1)nc(NC1CCN(CCO)CC1)n2Cc1nc(C)ccc1O [Compound 15, 2-{2-[1-(2-hydroxy-ethyl)-piperidin-4-ylamino]-5,7-dimethyl-benzoimidazol-1-ylmethyl}-6-methyl-pyridin-3-ol] | 143 | – | EC50 ([1]; Table 2, pEC50 (−log of EC50 in molar units), RSV-infected HeLa cells, MTT read-out seven days after infection, read-out: Activity (converted)): 398 nM
Cc1cc(C)c2nc(NC3CCN(CCO)CC3)n(Cc3nc(C)ccc3O)c2c1 [Compound 2, 2-{2-[1-(2-hydroxy-ethyl)-piperidin-4-ylamino]-4,6-dimethyl-benzoimidazol-1-ylmethyl}-6-methyl-pyridin-3-ol] | 177 | – | EC50 [1, 3]: 3.16 nM
Cc1ccc(O)c(Cn2c(NC3CCN(CCOC(=O)Cc4ccccc4)CC3)nc3c(C)cccc32)n1 [Compound 24, Phenyl-acetic acid 2-{4-[1-(3-hydroxy-6-methyl-pyridin-2-ylmethyl)-4-methyl-1H-benzoimidazol-2-ylamino]-piperidin-1-yl}-ethyl ester] | 207 | – | EC50 ([1]; HeLa, read-out: Activity): 31.6 nM
6-methyl-2-[4-methyl-2-(1-methyl-piperidin-4-ylamino)-benzoimidazol-1-ylmethyl]-pyridin-3-ol [Compound 34] | – | – | Activity ([1]; Table 3, pEC50 (−log of EC50 in molar units), RSV-infected HeLa cells, MTT read-out seven days after infection): 6.8
